From ChEMBL document CHEMBL5678818, “Discovery of potent SOS1 inhibitors that block RAS activation via disruption of the RAS-SOS1 interaction” (Proc Natl Acad Sci U S A, 2019) come the findings set out here.

Experiment [1] deals with Serine/threonine-protein kinase 38-like (Homo sapiens) (UniProt Q9Y2H1). The experiment can be described thus: Inhibition of NDR2 (unknown origin) assessed as residual activity at 100 nM by KINOMEscan analysis relative to control.
Experiment [2] addresses T1, Phosphatidylinositol 3-kinase C2 domain-containing subunit gamma (Homo sapiens) (UniProt O75747).
T1 sequence (whole entry): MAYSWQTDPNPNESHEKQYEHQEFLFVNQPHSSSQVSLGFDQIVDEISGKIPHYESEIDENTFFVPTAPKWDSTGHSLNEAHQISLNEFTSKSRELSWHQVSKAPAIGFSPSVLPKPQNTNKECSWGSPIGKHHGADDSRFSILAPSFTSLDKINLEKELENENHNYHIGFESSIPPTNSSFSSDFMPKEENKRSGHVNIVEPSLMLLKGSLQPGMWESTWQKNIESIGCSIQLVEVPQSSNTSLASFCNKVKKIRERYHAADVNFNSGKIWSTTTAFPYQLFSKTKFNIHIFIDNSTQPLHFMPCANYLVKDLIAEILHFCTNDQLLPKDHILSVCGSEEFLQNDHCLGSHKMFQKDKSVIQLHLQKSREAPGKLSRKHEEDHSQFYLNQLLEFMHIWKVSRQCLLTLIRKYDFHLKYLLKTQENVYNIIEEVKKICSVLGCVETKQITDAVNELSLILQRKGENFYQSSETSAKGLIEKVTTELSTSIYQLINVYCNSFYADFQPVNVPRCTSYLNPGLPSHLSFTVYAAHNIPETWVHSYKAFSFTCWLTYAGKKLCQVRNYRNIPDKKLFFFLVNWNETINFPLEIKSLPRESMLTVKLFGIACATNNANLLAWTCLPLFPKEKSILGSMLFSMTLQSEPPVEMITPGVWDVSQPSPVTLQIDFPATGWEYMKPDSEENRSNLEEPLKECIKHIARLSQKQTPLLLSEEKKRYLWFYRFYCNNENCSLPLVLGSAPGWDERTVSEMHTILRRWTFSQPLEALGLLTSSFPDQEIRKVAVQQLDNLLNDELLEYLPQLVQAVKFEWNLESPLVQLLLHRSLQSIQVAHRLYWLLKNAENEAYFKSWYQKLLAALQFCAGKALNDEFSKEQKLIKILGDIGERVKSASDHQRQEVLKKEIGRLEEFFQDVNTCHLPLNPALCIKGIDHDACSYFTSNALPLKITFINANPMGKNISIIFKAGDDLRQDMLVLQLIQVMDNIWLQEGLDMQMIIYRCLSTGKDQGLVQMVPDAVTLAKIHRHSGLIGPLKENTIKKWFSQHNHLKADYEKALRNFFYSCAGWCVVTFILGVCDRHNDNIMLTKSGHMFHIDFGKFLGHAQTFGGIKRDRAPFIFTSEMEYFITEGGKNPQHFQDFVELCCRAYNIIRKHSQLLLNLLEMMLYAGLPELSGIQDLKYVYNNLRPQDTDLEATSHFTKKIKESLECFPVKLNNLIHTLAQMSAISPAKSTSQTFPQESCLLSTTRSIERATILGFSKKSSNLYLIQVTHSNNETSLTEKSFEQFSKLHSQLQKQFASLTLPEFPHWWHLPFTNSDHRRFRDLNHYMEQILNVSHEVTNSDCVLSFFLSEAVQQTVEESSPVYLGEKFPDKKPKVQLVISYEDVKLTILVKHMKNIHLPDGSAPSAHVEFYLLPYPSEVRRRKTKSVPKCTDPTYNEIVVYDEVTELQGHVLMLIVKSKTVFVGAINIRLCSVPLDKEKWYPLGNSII
Put plainly: Inhibition of PIK3C2G (unknown origin) assessed as residual activity at 100 nM by KINOMEscan analysis relative to control.

Experiment [3] concerns the target Ephrin type-A receptor 7 (Homo sapiens) (UniProt Q15375). Put plainly: Inhibition of EPHA7 (unknown origin) assessed as residual activity at 100 nM by KINOMEscan analysis relative to control.
Experiment [4] concerns the target Tyrosine-protein kinase Lyn (Homo sapiens) (UniProt P07948). Put plainly: Inhibition of LYN (unknown origin) assessed as residual activity at 100 nM by KINOMEscan analysis relative to control.
In experiment [5] the target is Tyrosine-protein kinase receptor UFO (Homo sapiens) (UniProt P30530). Put plainly: Inhibition of AXL (unknown origin) assessed as residual activity at 100 nM by KINOMEscan analysis relative to control.
Tyrosine-protein kinase receptor UFO (Homo sapiens), sequence (P30530 whole entry): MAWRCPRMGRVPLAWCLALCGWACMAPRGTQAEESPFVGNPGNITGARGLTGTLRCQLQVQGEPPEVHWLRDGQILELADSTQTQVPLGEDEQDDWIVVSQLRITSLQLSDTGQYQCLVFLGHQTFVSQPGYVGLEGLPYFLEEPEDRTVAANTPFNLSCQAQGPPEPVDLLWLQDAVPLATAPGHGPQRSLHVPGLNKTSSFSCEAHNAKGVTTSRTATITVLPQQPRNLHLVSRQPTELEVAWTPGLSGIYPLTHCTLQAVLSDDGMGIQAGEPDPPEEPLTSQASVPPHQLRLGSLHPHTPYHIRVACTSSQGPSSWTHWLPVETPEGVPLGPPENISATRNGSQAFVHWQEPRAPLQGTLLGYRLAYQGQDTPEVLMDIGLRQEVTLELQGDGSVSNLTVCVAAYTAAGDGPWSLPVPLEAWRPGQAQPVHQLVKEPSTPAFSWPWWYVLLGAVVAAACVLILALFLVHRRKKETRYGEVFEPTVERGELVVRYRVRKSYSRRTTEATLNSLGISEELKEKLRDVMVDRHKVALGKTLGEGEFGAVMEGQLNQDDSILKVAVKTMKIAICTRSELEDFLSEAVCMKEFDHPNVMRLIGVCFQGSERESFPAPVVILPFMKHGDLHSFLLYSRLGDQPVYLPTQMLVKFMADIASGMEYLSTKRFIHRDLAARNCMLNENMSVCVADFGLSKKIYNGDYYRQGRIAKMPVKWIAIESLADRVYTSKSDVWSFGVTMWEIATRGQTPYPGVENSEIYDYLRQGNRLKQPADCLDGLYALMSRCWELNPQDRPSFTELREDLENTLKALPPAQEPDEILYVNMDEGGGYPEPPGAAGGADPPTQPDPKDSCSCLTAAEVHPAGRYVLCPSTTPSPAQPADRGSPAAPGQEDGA

Serine/threonine-protein kinase 38-like (Homo sapiens), sequence (Q9Y2H1 2-464 limits assumed): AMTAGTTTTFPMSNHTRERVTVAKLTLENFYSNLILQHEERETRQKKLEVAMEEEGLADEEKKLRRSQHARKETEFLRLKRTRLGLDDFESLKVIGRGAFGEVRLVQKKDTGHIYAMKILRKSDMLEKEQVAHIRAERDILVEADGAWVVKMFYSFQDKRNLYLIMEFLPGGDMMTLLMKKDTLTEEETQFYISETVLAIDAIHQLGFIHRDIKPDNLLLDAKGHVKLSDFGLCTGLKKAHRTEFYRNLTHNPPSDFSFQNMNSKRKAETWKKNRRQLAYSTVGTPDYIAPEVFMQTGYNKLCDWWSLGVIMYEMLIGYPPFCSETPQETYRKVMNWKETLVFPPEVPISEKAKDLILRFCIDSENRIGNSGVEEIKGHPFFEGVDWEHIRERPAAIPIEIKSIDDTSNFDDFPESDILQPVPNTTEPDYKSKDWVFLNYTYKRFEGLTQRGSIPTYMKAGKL
Tyrosine-protein kinase Lyn (Homo sapiens), sequence (P07948 2-512 limits assumed): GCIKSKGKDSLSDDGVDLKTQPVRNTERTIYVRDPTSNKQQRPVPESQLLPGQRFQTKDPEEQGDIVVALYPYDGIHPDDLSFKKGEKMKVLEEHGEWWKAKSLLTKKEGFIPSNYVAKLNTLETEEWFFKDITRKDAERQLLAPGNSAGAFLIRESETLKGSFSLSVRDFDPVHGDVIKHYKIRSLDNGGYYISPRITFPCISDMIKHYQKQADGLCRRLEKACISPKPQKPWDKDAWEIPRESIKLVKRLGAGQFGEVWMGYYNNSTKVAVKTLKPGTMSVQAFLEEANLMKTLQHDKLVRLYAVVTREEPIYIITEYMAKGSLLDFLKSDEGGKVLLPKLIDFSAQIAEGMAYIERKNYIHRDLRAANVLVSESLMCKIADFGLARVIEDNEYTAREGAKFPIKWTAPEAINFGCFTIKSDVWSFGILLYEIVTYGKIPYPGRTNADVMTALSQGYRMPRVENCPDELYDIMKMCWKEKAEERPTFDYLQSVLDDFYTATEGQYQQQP
Ephrin type-A receptor 7 (Homo sapiens), sequence (Q15375 28-998 limits assumed): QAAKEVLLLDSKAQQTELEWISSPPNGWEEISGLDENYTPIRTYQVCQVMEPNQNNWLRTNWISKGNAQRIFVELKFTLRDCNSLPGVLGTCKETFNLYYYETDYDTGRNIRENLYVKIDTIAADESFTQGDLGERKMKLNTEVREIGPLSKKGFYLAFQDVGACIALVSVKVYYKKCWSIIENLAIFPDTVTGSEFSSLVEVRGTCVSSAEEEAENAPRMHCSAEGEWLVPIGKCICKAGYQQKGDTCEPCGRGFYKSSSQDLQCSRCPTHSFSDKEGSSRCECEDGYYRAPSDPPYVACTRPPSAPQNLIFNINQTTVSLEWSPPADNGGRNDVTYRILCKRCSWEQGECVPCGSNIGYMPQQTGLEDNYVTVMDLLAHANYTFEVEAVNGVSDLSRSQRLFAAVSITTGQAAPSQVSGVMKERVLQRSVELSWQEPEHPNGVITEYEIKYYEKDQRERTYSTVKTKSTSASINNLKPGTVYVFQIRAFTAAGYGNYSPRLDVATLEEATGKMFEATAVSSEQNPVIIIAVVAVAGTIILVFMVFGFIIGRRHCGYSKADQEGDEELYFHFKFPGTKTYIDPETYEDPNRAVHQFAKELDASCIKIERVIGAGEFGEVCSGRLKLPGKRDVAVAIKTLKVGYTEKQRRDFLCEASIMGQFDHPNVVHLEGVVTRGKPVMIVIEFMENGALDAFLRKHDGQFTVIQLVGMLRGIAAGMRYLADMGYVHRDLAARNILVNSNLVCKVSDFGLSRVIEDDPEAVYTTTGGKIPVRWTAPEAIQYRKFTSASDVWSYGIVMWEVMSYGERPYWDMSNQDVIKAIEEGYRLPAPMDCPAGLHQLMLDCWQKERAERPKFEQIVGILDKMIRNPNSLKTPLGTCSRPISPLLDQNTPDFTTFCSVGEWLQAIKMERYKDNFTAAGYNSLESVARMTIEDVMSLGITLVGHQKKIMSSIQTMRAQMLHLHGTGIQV

`COc1cc2ncnc(N[C@H](C)c3cccc4ccccc34)c2cc1OC`: the Activity worked out at 49% in experiment [1]; 85% in experiment [2]; 78% in experiment [3]; 84% in experiment [4]; 86% in experiment [5].
